According to patent US12486264B2, “Bicyclic HPK1 inhibitors” (Janssen Pharmaceutica NV, priority 2019, dated 2025):

How the values were obtained:
full-length human Hpk1 = target: T1, full-length human Hpk1 (Homo sapiens, UniProt Q92918); assay: HPK1 kinase assay (ADP Glo); type: biochemical; settings: GST-Hpk1, 75 μM ATP solution added, ADP Glo luminescence; for IC50: read-out: Hpk1 biochemical (pIC50) (converted)
T1 construct: full-length human Hpk1 with an N-terminal Glutatione S-transferase (GST) tag; GST (N); made in house; host or cells: baculovirus/insect cell expression system
T1 sequence (Q92918 whole entry): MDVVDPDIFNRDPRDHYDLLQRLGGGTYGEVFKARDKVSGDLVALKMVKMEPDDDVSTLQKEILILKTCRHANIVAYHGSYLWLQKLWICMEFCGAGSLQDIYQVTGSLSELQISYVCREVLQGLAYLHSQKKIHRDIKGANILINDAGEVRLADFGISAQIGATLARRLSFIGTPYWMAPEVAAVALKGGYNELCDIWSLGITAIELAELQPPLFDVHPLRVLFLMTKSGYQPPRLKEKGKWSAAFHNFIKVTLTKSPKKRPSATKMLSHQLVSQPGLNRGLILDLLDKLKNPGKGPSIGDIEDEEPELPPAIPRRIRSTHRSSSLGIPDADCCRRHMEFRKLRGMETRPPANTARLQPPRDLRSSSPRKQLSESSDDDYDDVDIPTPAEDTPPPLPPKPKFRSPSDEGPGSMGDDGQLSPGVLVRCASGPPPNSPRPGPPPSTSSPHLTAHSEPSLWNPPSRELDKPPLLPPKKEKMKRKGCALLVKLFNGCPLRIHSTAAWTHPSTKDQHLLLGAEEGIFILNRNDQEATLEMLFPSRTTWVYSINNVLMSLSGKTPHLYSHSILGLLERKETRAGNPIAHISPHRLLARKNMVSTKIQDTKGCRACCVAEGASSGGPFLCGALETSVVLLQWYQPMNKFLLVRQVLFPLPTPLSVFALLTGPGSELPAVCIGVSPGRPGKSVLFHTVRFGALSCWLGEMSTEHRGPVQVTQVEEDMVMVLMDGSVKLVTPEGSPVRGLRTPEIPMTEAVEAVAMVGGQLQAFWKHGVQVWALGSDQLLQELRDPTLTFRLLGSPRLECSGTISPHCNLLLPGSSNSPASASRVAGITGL
Experimental: A recombinant fusion protein consisting of full-length human Hpk1 with an N-terminal Glutatione S-transferase (GST) tag was produced in a baculovirus/insect cell expression system. GST-Hpk1 protein was purified from cell lysates by glutathione sepharose affinity chromatography. Kinase inhibition was determined using the ADP Glo™ Kinase Assay kit (Promega, V9101). Test compounds were prepared by serial dilution in dimethyl sulfoxide (DMSO) and 0.1 μl of each dilution was spotted onto a 384-well white Proxiplate (Perkin Elmer, 6008289). 8 μl of kinase assay buffer (40 mM Tris pH 7.5, 2 mM dithiothreitol (DTT), 0.05% Bovine Serum Albumin, 5 mM MgCl2) containing Hpk1 protein was transferred to each well and incubated for 30-45 minutes at room temperature. The enzymatic reaction was started by adding 2 μl of kinase assay buffer containing 75 μM ATP. After 120 minutes, the reaction was stopped by adding 3 μl of ADP Glo™ reagent (Promega, V9101) and incubating 45 minutes at room temperature.

Hpk1 = target: T2, Hpk1 (Homo sapiens, UniProt Q92918); assay: SLP76 phosphorylation assay (HEK293 cells expressing Hpk1 and SLP76); type: cell-based; settings: SLP76 phosphorylation at S376, HEK293 cells expressing Hpk1 and SLP76, 4 hours incubation; for IC50: read-out: pSLP76 (HEK293) (pIC50) (converted)
T2 construct: expressed in transfected cells; host or cells: HEK293 cells engineered to express Hpk1 and SLP76
T2 sequence (Q92918 whole entry): as above
Experimental: Hpk1 inhibition in cells was determined by detection of SLP76 phosphorylation at S376 in lysates from HEK293 cells engineered to express Hpk1 and SLP76. Serial dilutions of test compounds were prepared in cell culture medium and 20 μl was transferred into each well of a 96-well plate containing HEK293 cells in 180 μl of culture medium. After incubation for 4 hours at 37° C./5% CO2, the culture medium was removed, plates were put on ice and cells washed with cold Minimal Essential Medium before lysing in 90 μl of cold Mammalian Protein Extraction Reagent (Thermo Scientific, 78501) for 30 minutes on ice. The cell lysates were transferred to another 96-well plate, centrifuged 10 minutes at 3000 rcf (4° C.) and 30 μl transferred to a 96-well High-bind plate (MSD, L15XB-3). After coating overnight at 4° C., the cell lysate was removed, wells were washed with base buffer (TBS, 0.2% Tween-20), and blocking solution (base buffer containing 3% MSD blocker A) was added to each well for 1 hour at room temperature. The blocking solution was removed, the wells were washed with base buffer, and detection antibody (SLP76 pS376) was added in 25 μl base buffer containing 1% MSD blocker A to each well. After a 2 h incubation at room temperature, the detection antibody was removed, wells were washed four times with base buffer, 25 μl SULFO-TAG labeled goat anti-rabbit secondary antibody (MSD, R32AB-1) in base buffer containing 1% MSD blocker A was added to each well and left for 1 hour at room temperature. Wells were washed 4 times with base buffer, 150 μl Read Buffer T was added to each well, and the plates were read in a Mesoscale plate reader (MSD). IC50 values were determined by curve-fitting the electrochemiluminescent signals obtained from the lysates of HEK293 cells expressing Hpk1 and SLP76 treated with test compounds at various concentrations minus the signal obtained from HEK293 cells expressing SLP76 only.

Structure (SMILES)	IC50 (full-length human Hpk1) [nM]	IC50 (Hpk1) [nM]	Hpk1 biochemical (pIC50) (full-length human Hpk1)	pSLP76 (HEK293) (pIC50) (Hpk1)
CC(C)[C@H](CO)CNC(=O)c1c[nH]c2ncc(-c3ccc(C4CCOCC4)c(CN(C)C)c3)cc12 (single isomer, unassigned) [Co. 31a]	3.39	257		
CC(C)[C@@H](CO)CNC(=O)c1c[nH]c2ncc(-c3ccc(C4CCOCC4)c(CN(C)C)c3)cc12 (single isomer, unassigned) [Co. 31b]	26.3	1320		
Cc1c[nH]c2ncc(-c3ccc(C4CCOCC4)c([C@@H]4CCCN4)c3)cc12 [Co. 1]	1.86	288		
Cc1cc2cc(-c3ccc(C4CCOCC4)c(C4CCCN4)c3)cnc2[nH]1 (stereo not shown) [Co. 2]	145	6760		
N#Cc1c[nH]c2ncc(-c3ccc(C4CCOCC4)c(C4CCCN4)c3)cc12 (stereo not shown) [Co. 3]	3.16	257		
N#CCc1c[nH]c2ncc(-c3ccc(C4CCOCC4)c([C@@H]4CCCN4)c3)cc12 [Co. 4]	11.2	120		
c1cc2cc(-c3ccc(C4CCOCC4)c(C4CCCN4)c3)cnc2[nH]1 (stereo not shown) [Co. 6]	30.2	389		
Cc1c[nH]c2ncc(-c3ccc(C4CCOCC4)c([C@@H]4COCCN4)c3)cc12 [Co. 8]	4.47	112		
CC(C)C(O)CNC(=O)c1c[nH]c2ncc(-c3ccc(C4CCOCC4)c(CN(C)C)c3)cc12 (stereo not shown) [Co. 11]	21.9	3550		
CN(C)Cc1cc(-c2cnc3[nH]cc(C(=O)NCC(C)(C)O)c3c2)ccc1C1CCOCC1 [Co. 12]	5.75	575		
CN(C)Cc1cc(-c2cnc3[nH]cc(C(=O)NCC(CO)C4CC4)c3c2)ccc1C1CCOCC1 (stereo not shown) [Co. 13]	12	759		
CN(C)Cc1cc(-c2cnc3[nH]cc(C(=O)NCC4(CO)CC4)c3c2)ccc1C1CCOCC1 [Co. 15]	7.94	380		
CN(C)Cc1cc(-c2cnc3[nH]cc(C(=O)NCC4(CO)COC4)c3c2)ccc1C1CCOCC1 [Co. 16]	53.7	> 10000		
CN(C)Cc1cc(-c2cnc3[nH]cc(C(=O)NCC4(CO)CCCC4)c3c2)ccc1C1CCOCC1 [Co. 17]	3.8	251		
CN(C)Cc1cc(-c2cnc3[nH]cc(C(=O)N[C@@H]4CCC[C@@H]4O)c3c2)ccc1C1CCOCC1 [Co. 18]	2.88	263		
CN(C)Cc1cc(-c2cnc3[nH]cc(C(=O)NCc4ncco4)c3c2)ccc1C1CCOCC1 [Co. 19]	10.2	1020		

Structure (SMILES)	IC50 (full-length human Hpk1) [nM]	IC50 (Hpk1) [nM]	Hpk1 biochemical (pIC50) (full-length human Hpk1)	pSLP76 (HEK293) (pIC50) (Hpk1)
CN(C)Cc1cc(-c2cnc3[nH]cc(C(=O)NCc4nccn4C)c3c2)ccc1C1CCOCC1 [Co. 20a]	28.2	6920		
CN(C)Cc1cc(-c2cnc3[nH]cc(C(=O)N(C)C)c3c2)ccc1C1CCOCC1 [Co. 20b]	93.3	7240		
Cc1nnc(CNC(=O)c2c[nH]c3ncc(-c4ccc(C5CCOCC5)c(CN(C)C)c4)cc23)o1 [Co. 21]	33.9	9550		
Cc1nc(CNC(=O)c2c[nH]c3ncc(-c4ccc(C5CCOCC5)c(CN(C)C)c4)cc23)no1 [Co. 22]	58.9	6460		
CN(C)Cc1cc(-c2cnc3[nH]cc(C(=O)NCC4(O)CCCC4)c3c2)ccc1C1CCOCC1 [Co. 23]	10.5	1580		
CN(C)Cc1cc(-c2cnc3[nH]cc(C(=O)NCc4nccs4)c3c2)ccc1C1CCOCC1 [Co. 24]	4.47	1550		
CN(C)Cc1cc(-c2cnc3[nH]cc(C(=O)NCC4CCC(=O)N4C)c3c2)ccc1C1CCOCC1 (stereo not shown) [Co. 26]	38.9	4270		
CC(CO)CNC(=O)c1c[nH]c2ncc(-c3ccc(C4CCOCC4)c(CN(C)C)c3)cc12 (stereo not shown) [Co. 27]			7.93	5.94
CN(C)Cc1cc(-c2cnc3[nH]cc(C(=O)NCCNC(=O)C(F)F)c3c2)ccc1C1CCOCC1 [Co. 29]	12.3	1550		
COCC(C)(O)CNC(=O)c1c[nH]c2ncc(-c3ccc(C4CCOCC4)c(CN(C)C)c3)cc12 (stereo not shown) [Co. 30]	15.8	2140		
CC(=O)N(C)CCNC(=O)c1c[nH]c2ncc(-c3ccc(C4CCOCC4)c(CN(C)C)c3)cc12 [Co. 32]	66.1	1580		
CN(C)Cc1cc(-c2cnc3[nH]cc(C(=O)NS(=O)(=O)C4CC4)c3c2)ccc1C1CCOCC1 [Co. 33]	9.12	> 10000		
CC(C)C(CO)CNCc1c[nH]c2ncc(-c3ccc(C4CCOCC4)c(CN(C)C)c3)cc12 (stereo not shown) [Co. 34]	324	> 10000		
c1coc(CNCc2c[nH]c3ncc(-c4ccc(C5CCOCC5)c(C5CCCN5)c4)cc23)n1 (stereo not shown) [Co. 35]	22.9	3020		
CC(C)C(CO)CNC(c1c[nH]c2ncc(-c3ccc(C4CCOCC4)c(CN(C)C)c3)cc12)C(F)(F)F (stereo not shown) [Co. 36]	40.7	2630		
CN(C)Cc1cc(-c2cnc3[nH]cc(C(NCc4ncco4)C(F)(F)F)c3c2)ccc1C1CCOCC1 (stereo not shown) [Co. 37]	21.9	1660		
